Experimental findings from patent publication US9302988B2, “Fluoromethyl-substituted pyrrole carboxamides” (GRÜNENTHAL GMBH, priority 2012, dated 2016) are described below.

A value given as a limit tells only on which side of the number the result lay.

The target in the assay is T1, Human CaV2.2 channels (Homo sapiens, UniProt Q00975).
T1 construct: expressed in transfected cells
T1 sequence (Q00975 whole entry): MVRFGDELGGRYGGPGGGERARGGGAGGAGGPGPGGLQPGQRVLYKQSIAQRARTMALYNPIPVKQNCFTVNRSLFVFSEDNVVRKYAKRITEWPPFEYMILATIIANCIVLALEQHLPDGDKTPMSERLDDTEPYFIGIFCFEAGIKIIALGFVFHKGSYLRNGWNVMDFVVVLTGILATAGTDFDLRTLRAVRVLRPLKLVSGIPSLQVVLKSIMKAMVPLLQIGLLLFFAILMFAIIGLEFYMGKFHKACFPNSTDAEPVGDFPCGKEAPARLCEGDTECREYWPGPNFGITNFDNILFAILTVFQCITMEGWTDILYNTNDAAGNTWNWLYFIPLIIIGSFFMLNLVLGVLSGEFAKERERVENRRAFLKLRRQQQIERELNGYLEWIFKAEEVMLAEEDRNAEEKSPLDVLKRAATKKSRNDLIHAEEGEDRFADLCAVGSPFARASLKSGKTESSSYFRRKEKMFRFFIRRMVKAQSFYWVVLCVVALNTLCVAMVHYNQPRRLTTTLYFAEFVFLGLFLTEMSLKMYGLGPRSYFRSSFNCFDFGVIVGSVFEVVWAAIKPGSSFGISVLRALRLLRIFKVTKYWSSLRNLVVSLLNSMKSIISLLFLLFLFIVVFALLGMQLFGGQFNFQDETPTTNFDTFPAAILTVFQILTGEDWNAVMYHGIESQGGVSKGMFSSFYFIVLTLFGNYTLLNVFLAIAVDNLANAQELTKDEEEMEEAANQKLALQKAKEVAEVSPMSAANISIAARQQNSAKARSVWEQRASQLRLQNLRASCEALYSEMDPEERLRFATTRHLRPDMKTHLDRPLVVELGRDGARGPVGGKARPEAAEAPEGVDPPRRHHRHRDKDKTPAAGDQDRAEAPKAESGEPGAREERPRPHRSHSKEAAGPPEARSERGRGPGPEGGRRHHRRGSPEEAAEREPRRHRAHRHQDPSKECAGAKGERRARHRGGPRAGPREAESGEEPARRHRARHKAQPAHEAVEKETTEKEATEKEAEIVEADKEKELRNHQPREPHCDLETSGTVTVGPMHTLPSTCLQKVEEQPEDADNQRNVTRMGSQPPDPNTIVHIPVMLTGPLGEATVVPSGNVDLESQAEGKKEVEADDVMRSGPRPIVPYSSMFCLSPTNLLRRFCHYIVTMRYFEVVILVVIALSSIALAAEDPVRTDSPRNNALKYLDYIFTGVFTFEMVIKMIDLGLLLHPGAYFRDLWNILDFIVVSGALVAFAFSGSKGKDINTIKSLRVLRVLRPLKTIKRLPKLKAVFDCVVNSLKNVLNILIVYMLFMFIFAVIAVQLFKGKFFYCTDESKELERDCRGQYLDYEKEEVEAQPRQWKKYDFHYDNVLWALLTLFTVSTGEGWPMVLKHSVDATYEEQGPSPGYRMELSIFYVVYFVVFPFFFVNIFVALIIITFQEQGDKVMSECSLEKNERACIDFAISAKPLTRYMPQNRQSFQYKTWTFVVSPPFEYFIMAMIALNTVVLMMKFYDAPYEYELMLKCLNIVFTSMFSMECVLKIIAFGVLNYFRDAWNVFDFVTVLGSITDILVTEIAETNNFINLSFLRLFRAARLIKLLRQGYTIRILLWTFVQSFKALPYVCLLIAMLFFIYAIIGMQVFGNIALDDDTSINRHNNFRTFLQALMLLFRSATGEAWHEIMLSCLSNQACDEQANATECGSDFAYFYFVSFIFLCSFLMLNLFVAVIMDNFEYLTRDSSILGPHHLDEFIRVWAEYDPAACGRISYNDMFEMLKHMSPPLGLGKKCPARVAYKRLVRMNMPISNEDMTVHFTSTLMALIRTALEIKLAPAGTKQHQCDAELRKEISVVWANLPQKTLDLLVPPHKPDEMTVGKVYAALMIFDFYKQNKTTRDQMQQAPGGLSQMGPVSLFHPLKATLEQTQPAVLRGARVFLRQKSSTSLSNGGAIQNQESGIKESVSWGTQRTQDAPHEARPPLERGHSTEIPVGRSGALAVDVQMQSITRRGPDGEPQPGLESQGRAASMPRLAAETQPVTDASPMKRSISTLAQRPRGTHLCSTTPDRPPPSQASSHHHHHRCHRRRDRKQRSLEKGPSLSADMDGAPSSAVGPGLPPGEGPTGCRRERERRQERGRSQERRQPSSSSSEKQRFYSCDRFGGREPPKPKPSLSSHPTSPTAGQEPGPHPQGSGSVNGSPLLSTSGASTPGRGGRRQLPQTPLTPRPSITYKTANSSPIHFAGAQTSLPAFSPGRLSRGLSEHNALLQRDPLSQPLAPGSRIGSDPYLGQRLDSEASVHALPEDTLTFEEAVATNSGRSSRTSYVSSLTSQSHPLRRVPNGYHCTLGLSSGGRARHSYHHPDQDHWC
T1 sequence (P54289 25-1103, further chain): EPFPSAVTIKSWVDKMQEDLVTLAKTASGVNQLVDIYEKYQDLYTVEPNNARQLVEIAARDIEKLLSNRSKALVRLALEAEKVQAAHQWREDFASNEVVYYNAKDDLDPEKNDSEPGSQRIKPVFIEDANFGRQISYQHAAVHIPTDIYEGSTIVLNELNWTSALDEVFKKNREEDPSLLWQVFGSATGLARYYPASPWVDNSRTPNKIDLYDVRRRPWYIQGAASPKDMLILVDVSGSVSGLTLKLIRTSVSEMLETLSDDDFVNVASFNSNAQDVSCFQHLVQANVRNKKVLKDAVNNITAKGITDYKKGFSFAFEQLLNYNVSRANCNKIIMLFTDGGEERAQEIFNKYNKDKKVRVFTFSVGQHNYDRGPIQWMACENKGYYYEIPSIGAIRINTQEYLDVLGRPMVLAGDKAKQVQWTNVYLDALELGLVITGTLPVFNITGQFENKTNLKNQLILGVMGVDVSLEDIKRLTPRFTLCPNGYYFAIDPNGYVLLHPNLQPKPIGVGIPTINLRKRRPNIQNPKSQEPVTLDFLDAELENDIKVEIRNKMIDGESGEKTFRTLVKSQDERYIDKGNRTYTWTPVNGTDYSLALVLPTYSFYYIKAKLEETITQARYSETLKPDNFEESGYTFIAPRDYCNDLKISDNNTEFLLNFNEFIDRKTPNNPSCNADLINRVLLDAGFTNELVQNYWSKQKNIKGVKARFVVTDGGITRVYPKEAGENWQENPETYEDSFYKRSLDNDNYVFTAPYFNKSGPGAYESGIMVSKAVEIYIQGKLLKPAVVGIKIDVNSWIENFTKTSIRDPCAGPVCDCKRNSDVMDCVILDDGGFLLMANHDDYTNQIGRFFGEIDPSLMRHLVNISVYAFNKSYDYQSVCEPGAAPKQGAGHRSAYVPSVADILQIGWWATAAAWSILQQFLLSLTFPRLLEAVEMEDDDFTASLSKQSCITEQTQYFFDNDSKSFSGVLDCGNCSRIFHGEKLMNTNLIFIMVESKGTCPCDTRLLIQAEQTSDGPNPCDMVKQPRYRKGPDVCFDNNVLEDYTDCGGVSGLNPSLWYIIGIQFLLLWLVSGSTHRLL
T1 sequence (P54284 whole entry, further chain): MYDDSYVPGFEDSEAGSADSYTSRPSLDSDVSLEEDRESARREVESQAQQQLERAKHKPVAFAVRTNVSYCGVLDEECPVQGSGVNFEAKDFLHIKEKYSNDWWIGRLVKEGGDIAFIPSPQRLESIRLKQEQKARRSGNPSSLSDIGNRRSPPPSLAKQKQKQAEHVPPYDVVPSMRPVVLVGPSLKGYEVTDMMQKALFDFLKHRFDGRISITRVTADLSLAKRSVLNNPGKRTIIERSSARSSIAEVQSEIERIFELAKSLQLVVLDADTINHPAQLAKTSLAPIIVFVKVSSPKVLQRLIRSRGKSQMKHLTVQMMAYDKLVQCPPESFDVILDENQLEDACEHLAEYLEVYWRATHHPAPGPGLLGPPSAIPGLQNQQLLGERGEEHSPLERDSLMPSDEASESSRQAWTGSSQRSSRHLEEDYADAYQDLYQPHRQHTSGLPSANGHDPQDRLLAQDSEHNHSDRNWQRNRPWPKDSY
The assay can be described thus: Fluorescent assay for CaV2.2 channels using potassium depolarization to induce channel opening (FLIPR, Fluo-4). The class given is cell-based. As to conditions: 3 μM test compound, 30 mM KCl, HEK293 cells stably expressing human CaV2.2; read-out: %-Inhib (CaV2.2) @3 μM @30 mM KCl. The source says: In the process, the Ca^2+ influx is quantified in the FLIPR assay with the aid of a Ca^2+-sensitive dye (type Fluo-4, Molecular Probes Europe BV, Leiden, the Netherlands) in a fluorescent imaging plate reader (FLIPR 3, Molecular Devices, Sunnyvale, USA), as described hereinafter.
2.1 Fluorescent Assay for CaV2.2 Channels Using Potassium Depolarization to Induce Channel Opening
Human CaV2.2 channels were stably expressed in HEK293 cells together with alpha2-delta and beta subunits of voltage gated calcium channels. In addition, an inwardly rectifying potassium channel (Kir2.3) was stably expressed in these cells to augment control of the cell membrane potential by the concentration of extracellular potassium ions. Raise of the extracellular potassium concentration leads to depolarization of the membrane potential and thus regulates the voltage dependent state of CaV2.2 channels. For preparation, cells were seeded in black poly-D-lysine coated 96-well plates (Becton Dickinson, Biocoat 4640) in 100 μl medium [500 ml DMEM/F-12 plus Glutamax (Invitrogen 31331-093) plus 5.5 ml MEM NEAA 100× (Invitrogen 11140-035) plus 50 ml FBS decomplemented (Invitrogen 10270-106) plus 4.4 ml Geneticin (Invitrogen 10131-027) plus 1.1 ml Hygromycin B (Invitrogen 10687-010) plus 68.75 μl Puromycin (Clontech, 631306)] at a cell density of 45.000 cells per well.
Plates were incubated at 37° C. (5% CO2) for 20 to 23 hours. On the day of experiment medium was discarded and cells were loaded with Fluo 4 by addition of 100 μl of basic assay buffer (10 mM HEPES, 30 mM KCl, 120 mM NaCl, 0.8 mM CaCl2, 1.7 mM MgCl2, 10 mM Glucose, 0.1% BSA. pH 7.4) containing 2 μM Fluo 4 (Molecular Probes; F-14201), 0.01% pluronic acid (Molecular Probes; P-6866) and 2.5 mM probenecid (Molecular Probes; P36400). Cells were incubated in the dark at 25° C. for 60 min. Then the dye containing buffer was discarded and 100 μl basic assay buffer was added. Subsequently cells were incubated in the dark at 25° C. for 15 min. 25 μl of basic assay buffer with or without test compound were added and cells were incubated again in the dark at 25° C. for 15 min. Fluorescence intensity was measured on a FLIPR 3 instrument (Molecular Devices Corp., Sunnyvale, Calif.) with excitation at 480 nm and emission at 535 nm. After continuously reading fluorescence for 30 sec, 50 μl of basic assay buffer containing 210 mM KCl (NaCl omitted) were added for depolarization. Peak fluorescent signal intensity was determined and the amplitude of the peak signal, normalized to base line, was used to measure channel inhibition by test compounds.
Turning to `Cc1c(-c2ccc(Cl)c(F)c2)c(C(=O)N(C)CC(C)(C)C)n(Cc2ccccc2)c1C(F)(F)F` [SC-250, 1-Benzyl-3-(4-chloro-3-fluoro-phenyl)-N-(2,2-dimethyl-propyl)-N,4-dimethyl-5-(trifluoromethyl)-1H-pyrrole-2-carboxylic acid amide], the inhibition at 3 µM was in the range of 40 to 75%. With `Cc1c(-c2ccc(Cl)cc2F)c(C(=O)NCCS(C)(=O)=O)n(Cc2ccccc2)c1C(F)(F)F` [SC-163, 1-Benzyl-3-(4-chloro-2-fluoro-phenyl)-4-methyl-N-(2-methylsulfonyl-ethyl)-5-(trifluoromethyl)-1H-pyrrole-2-carboxylic acid amide] the figure was greater than 95%; with `Cc1c(-c2ccc(Cl)cc2)c(C(=O)N(C)C(C)(C)CO)n(Cc2ccccc2)c1C(F)(F)F` [SC-126, 1-Benzyl-3-(4-chlorophenyl)-N-(2-hydroxy-1,1-dimethyl-ethyl)-N,4-dimethyl-5-(trifluoromethyl)-1H-pyrrole-2-carboxylic acid amide], greater than 95%; with `CCS(=O)(=O)CCN(C)C(=O)c1c(-c2ccc(Cl)cc2)cc(C(F)(F)F)n1Cc1ccccc1` [SC-192, 1-Benzyl-3-(4-chlorophenyl)-N-[2-(ethylsulfonyl)-ethyl]-N-methyl-5-(trifluoromethyl)-1H-pyrrole-2-carboxylic acid amide], greater than 95%. With `O=C(c1c(-c2ccc(Cl)cc2)cc(C(F)(F)F)n1Cc1ccccc1)N1CCC(CO)C1` (stereo not drawn) [SC-181, [1-Benzyl-3-(4-chlorophenyl)-5-(trifluoromethyl)-1H-pyrrol-2-yl]-[3-(hydroxymethyl)-pyrrolidin-1-yl]-methanone] the figure was 75 to 95%; with `CN(C(=O)c1c(-c2ccc(Cl)cc2)cc(C(F)(F)F)n1Cc1ccccc1)C1CCOCC1` [SC-73, 1-Benzyl-3-(4-chlorophenyl)-N-methyl-N-tetrahydro-pyran-4-yl-5-(trifluoromethyl)-1H-pyrrole-2-carboxylic acid amide], greater than 95%.

In the case of `Cc1cc(CN(C)C(=O)c2c(-c3ccc(Cl)cc3)cc(C(F)(F)F)n2Cc2ccccc2)no1` [SC-205, 1-Benzyl-3-(4-chlorophenyl)-N-methyl-N-[(5-methyl-isoxazol-3-yl)-methyl]-5-(trifluoromethyl)-1H-pyrrole-2-carboxylic acid amide], the inhibition at 3 µM was greater than 95%. In the case of `CN(CCS(C)(=O)=O)C(=O)c1c(-c2ccc(Cl)cc2F)cc(C(F)(F)F)n1Cc1ccccc1` [SC-90, 1-Benzyl-3-(4-chloro-2-fluoro-phenyl)-N-methyl-N-(2-methylsulfonyl-ethyl)-5-(trifluoromethyl)-1H-pyrrole-2-carboxylic acid amide] it was greater than 95%. In the case of `Cc1c(-c2ccc(Cl)cc2)c(C(=O)N(C)Cc2ccncn2)n(Cc2ccccc2)c1C(F)(F)F` [SC-144, 1-Benzyl-3-(4-chlorophenyl)-N,4-dimethyl-N-(pyrimidin-4-yl-methyl)-5-(trifluoromethyl)-1H-pyrrole-2-carboxylic acid amide] it was greater than 95%.

`CN(CCC(C)(C)O)C(=O)c1c(-c2ccc(Cl)cc2)cc(C(F)(F)F)n1Cc1ccccc1` [SC-176, 1-Benzyl-3-(4-chlorophenyl)-N-(3-hydroxy-3-methyl-butyl)-N-methyl-5-(trifluoromethyl)-1H-pyrrole-2-carboxylic acid amide]: the inhibition at 3 µM was greater than 95%. With `Cc1c(-c2ccc(Cl)cc2F)c(C(=O)N(C)CCC2CCCO2)n(Cc2ccccc2)c1C(F)(F)F` (stereo not drawn) [SC-164, 1-Benzyl-3-(4-chloro-2-fluoro-phenyl)-N,4-dimethyl-N-(2-tetrahydro-furan-2-yl-ethyl)-5-(trifluoromethyl)-1H-pyrrole-2-carboxylic acid amide] the figure was greater than 95%; with `Cc1c(-c2ccc(Cl)cc2)c(C(=O)N2CCOC(C)(C)C2)n(Cc2ccccc2)c1C(F)(F)F` [SC-40, [1-Benzyl-3-(4-chlorophenyl)-4-methyl-5-(trifluoromethyl)-1H-pyrrol-2-yl]-(2,2-dimethyl-morpholin-4-yl)-methanone], greater than 95%; with `CN(CC1CCCO1)C(=O)c1c(-c2ccc(Cl)cc2)cc(C(F)(F)F)n1Cc1ccccc1` (stereo not drawn) [SC-197, 1-Benzyl-3-(4-chlorophenyl)-N-methyl-N-(tetrahydro-furan-2-yl-methyl)-5-(trifluoromethyl)-1H-pyrrole-2-carboxylic acid amide], greater than 95%. With `CN(C)C(=O)c1c(-c2ccc(Cl)cc2)cc(C(F)(F)F)n1Cc1ccccc1` [SC-80, 1-Benzyl-3-(4-chlorophenyl)-N,N-dimethyl-5-(trifluoromethyl)-1H-pyrrole-2-carboxylic acid amide] the figure was 75 to 95%; with `Cc1c(-c2ccc(Cl)cc2F)c(C(=O)N2CCOC(C)(C)C2)n(Cc2ccccc2)c1C(F)(F)F` [SC-155, [1-Benzyl-3-(4-chloro-2-fluoro-phenyl)-4-methyl-5-(trifluoromethyl)-1H-pyrrol-2-yl]-(2,2-dimethyl-morpholin-4-yl)-methanone], greater than 95%; with `Cc1c(-c2ccc(F)cc2)c(C(=O)N2CCOC(C)(C)C2)n(Cc2ccccc2)c1C(F)(F)F` [SC-225, [1-Benzyl-3-(4-fluorophenyl)-4-methyl-5-(trifluoromethyl)-1H-pyrrol-2-yl]-(2,2-dimethyl-morpholin-4-yl)-methanone], greater than 95%.

Take `Cc1c(-c2ccc(Cl)cc2F)c(C(=O)N(C)C2CCOCC2)n(Cc2ccccc2)c1C(F)(F)F` [SC-156, 1-Benzyl-3-(4-chloro-2-fluoro-phenyl)-N,4-dimethyl-N-tetrahydro-pyran-4-yl-5-(trifluoromethyl)-1H-pyrrole-2-carboxylic acid amide]: the inhibition at 3 µM is greater than 95%.

Consider `Cc1c(-c2ccc(Cl)cc2)c(C(=O)N2CCOC(CO)C2)n(Cc2ccccc2)c1C(F)(F)F` (stereo not drawn) [SC-20, [1-Benzyl-3-(4-chlorophenyl)-4-methyl-5-(trifluoromethyl)-1H-pyrrol-2-yl]-[2-(hydroxymethyl)-morpholin-4-yl]-methanone], for which the inhibition at 3 µM was 75 to 95%. As to `Cc1c(-c2ccc(F)c(Cl)c2)c(C(=O)N2CC(F)(F)C2)n(Cc2ccccc2)c1C(F)(F)F` [SC-99, [1-Benzyl-3-(3-chloro-4-fluoro-phenyl)-4-methyl-5-(trifluoromethyl)-1H-pyrrol-2-yl]-(3,3-difluoro-azetidin-1-yl)-methanone], the inhibition at 3 µM was 40 to 75%.

Turning to `Cc1c(-c2ccc(Cl)cc2)c(C(=O)N(C)CC(C)(CO)CO)n(Cc2ccccc2)c1C(F)(F)F` [SC-125, 1-Benzyl-3-(4-chlorophenyl)-N-[3-hydroxy-2-(hydroxymethyl)-2-methyl-propyl]-N,4-dimethyl-5-(trifluoromethyl)-1H-pyrrole-2-carboxylic acid amide], the inhibition at 3 µM is greater than 95%. In the case of `Cc1c(-c2ccc(C(F)(F)F)cc2)c(C(=O)N(C)C(C)(C)CO)n(Cc2ccccc2)c1C(F)(F)F` [SC-231, 1-Benzyl-N-(2-hydroxy-1,1-dimethyl-ethyl)-N,4-dimethyl-5-(trifluoromethyl)-3-[4-(trifluoromethyl)-phenyl]-1H-pyrrole-2-carboxylic acid amide] it was greater than 95%; in that of `Cc1c(-c2ccc(Cl)c(F)c2)c(C(=O)N2CCOC(C)(C)C2)n(Cc2ccccc2)c1C(F)(F)F` [SC-249, [1-Benzyl-3-(4-chloro-3-fluoro-phenyl)-4-methyl-5-(trifluoromethyl)-1H-pyrrol-2-yl]-(2,2-dimethyl-morpholin-4-yl)-methanone], 75 to 95%; in that of `O=C(c1c(-c2ccc(Cl)cc2)cc(C(F)(F)F)n1Cc1cccc(Cl)c1)N1CCOCC1` [SC-74, [3-(4-Chlorophenyl)-1-[(3-chlorophenyl)-methyl]-5-(trifluoromethyl)-1H-pyrrol-2-yl]-morpholin-4-yl-methanone], greater than 95%. With `Cc1c(-c2ccc(Cl)cc2)c(C(=O)N(C)CC(C)(C)O)n(Cc2cccc(Cl)c2)c1C(F)(F)F` [SC-57, 3-(4-Chlorophenyl)-1-[(3-chlorophenyl)-methyl]-N-(2-hydroxy-2-methyl-propyl)-N,4-dimethyl-5-(trifluoromethyl)-1H-pyrrole-2-carboxylic acid amide], the inhibition at 3 µM is greater than 95%.
